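Dose response: 5 concentrations. Exposure: 48 h. Format: 96-well plates. Endpoint: linear interpolation; highest concentration if not reached. TGI marks complete inhibition of growth.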
How the values were obtained:
Assay in all cases: NCI-60 cell line screen, 48 h
[1] = test system: OVCAR-4 ovarian
[2] = test system: HCT-15 colon
[3] = test system: MALME-3M melanoma
[4] = test system: SK-MEL-5 melanoma
[5] = test system: HS 578T breast
[6] = test system: OVCAR-5 ovarian
[7] = test system: SK-MEL-2 melanoma
[8] = test system: SNB-19 CNS
[9] = test system: NCI-H226 lung
[10] = test system: NCI-H460 lung
[11] = test system: MCF7 breast
[12] = test system: M14 melanoma
[13] = test system: MDA-N
[14] = test system: KM12 colon
[15] = test system: PC-3 prostate
[16] = test system: TK-10 renal
[17] = test system: HCC-2998 colon
[18] = test system: HOP-62 NSCLC
[19] = test system: SK-OV-3 ovarian
[20] = test system: RPMI-8226 leukemia
[21] = test system: T-47D breast
[22] = test system: HT29 colon
[23] = test system: A498 renal
[24] = test system: LOX IMVI melanoma
[25] = test system: IGROV1 ovarian
[26] = test system: SF-295 CNS
[27] = test system: DU-145 prostate
[28] = test system: NCI-H23 lung
[29] = test system: EKVX NSCLC
[30] = test system: OVCAR-8 ovarian
[31] = test system: CCRF-CEM leukemia
[32] = test system: HL-60(TB) leukemia
[33] = test system: SF-268 CNS
[34] = test system: MDA-MB-231 breast
[35] = test system: SN12C renal
[36] = test system: CAKI-1 renal
[37] = test system: NCI/ADR-RES ovarian
[38] = test system: SR leukemia
[39] = test system: COLO 205 colon
[40] = test system: ACHN renal
[41] = test system: SK-MEL-28 melanoma
[42] = test system: 786-0 renal
[43] = test system: HOP-92 NSCLC
[44] = test system: OVCAR-3 ovarian
[45] = test system: MOLT-4 leukemia
[46] = test system: SNB-75 CNS
[47] = test system: UACC-257 melanoma
[48] = test system: MDA-MB-435
[49] = test system: SW-620 colon
[50] = test system: RXF 393 renal
[51] = test system: U251 CNS
[52] = test system: BT-549 breast
[53] = test system: NCI-H522 lung
[54] = test system: HCT-116 colon
[55] = test system: SF-539 CNS
[56] = test system: UO-31 renal
[57] = test system: A549 NSCLC
[58] = test system: K-562 leukemia
[59] = test system: UACC-62 melanoma

`O=C1c2c(Br)sc(Br)c2[C@@H](O)[C@H]1O` gave a TGI [1] of 29.5 µM, a TGI [2] of 30.1 µM and a TGI [3] of 40.6 µM. It also gave a TGI [4] of 32.4 µM, a TGI [5] of 63.5 µM and a TGI [6] of 36.6 µM. It also gave a TGI [7] of 32.6 µM, a TGI [8] of 38.3 µM and a TGI [9] of 37.7 µM. For the same molecule, the TGI [10] was 31.8 µM, the TGI [11] was 33 µM and the TGI [12] was 26.5 µM. The TGI [13] was 31.8 µM, the TGI [14] was 45.1 µM and the TGI [15] was 33.1 µM. For the same molecule, the TGI [16] was > 100 µM, the TGI [17] was 34.4 µM and the TGI [18] was 30.6 µM. For the same molecule, the TGI [19] was 29.4 µM, the TGI [20] was 47.6 µM and the TGI [21] was 43.7 µM. The TGI [22] was 40.4 µM, the TGI [23] was > 100 µM and the TGI [24] was 34.1 µM. For the same molecule, the TGI [25] was 35.7 µM, the TGI [26] was 35.1 µM and the TGI [27] was 30.7 µM. The TGI [28] was 21 µM, the TGI [29] was 34 µM and the TGI [30] was > 44.4 µM. It also gave a TGI [31] of 6.32 µM, a TGI [32] of 28.6 µM and a TGI [33] of 24.7 µM. For the same molecule, the TGI [34] was 31.4 µM, the TGI [35] was 32.8 µM and the TGI [36] was 33.7 µM. It also gave a TGI [37] of 56.5 µM, a TGI [38] of 4.84 µM and a TGI [39] of 28.5 µM. The TGI [40] was 33.5 µM, the TGI [41] was 41 µM and the TGI [42] was 28.5 µM. For the same molecule, the TGI [43] was 35.3 µM, the TGI [44] was 6.25 µM and the TGI [45] was 32.6 µM. For the same molecule, the TGI [46] was 31.6 µM, the TGI [47] was 29.3 µM and the TGI [48] was 25.8 µM. It also gave a TGI [49] of 12.3 µM, a TGI [50] of 30 µM and a TGI [51] of 20.8 µM. For the same molecule, the TGI [52] was 35.6 µM, the TGI [53] was 3.54 µM and the TGI [54] was 32.4 µM. The TGI [55] was 29.3 µM, the TGI [56] was 32.3 µM and the TGI [57] was 45 µM. The TGI [58] was > 36.8 µM and the TGI [59] was 30.4 µM.

`N#C/C(=C(/O)CCl)c1nc2ccccc2o1` was tested, and the TGI [1] was 3.97 µM, the TGI [2] was 4.46 µM and the TGI [3] was 29.1 µM. For the same molecule, the TGI [4] was 3.83 µM, the TGI [5] was > 100 µM and the TGI [7] was 11.6 µM. For the same molecule, the TGI [8] was > 100 µM, the TGI [9] was 5.07 µM and the TGI [10] was 14.3 µM. The TGI [11] was 8.59 µM, the TGI [12] was 21 µM and the TGI [13] was 15.8 µM. The TGI [14] was 53.3 µM, the TGI [15] was 22.8 µM and the TGI [16] was > 100 µM. For the same molecule, the TGI [18] was 41.9 µM, the TGI [19] was 24.7 µM and the TGI [20] was 7.87 µM. The TGI [21] was 44.6 µM, the TGI [22] was 22.5 µM and the TGI [23] was 4.4 µM. For the same molecule, the TGI [24] was 4.15 µM, the TGI [25] was 4.09 µM and the TGI [26] was 6.74 µM. The TGI [27] was > 100 µM, the TGI [28] was 25.4 µM and the TGI [30] was 14.9 µM. It also gave a TGI [31] of 90.7 µM, a TGI [32] of 7.04 µM and a TGI [33] of 8.57 µM. The TGI [34] was 9.41 µM, the TGI [35] was 9.33 µM and the TGI [36] was 22.6 µM. The TGI [37] was 5.4 µM, the TGI [38] was 15 µM and the TGI [39] was 3.45 µM. It also gave a TGI [41] of 3.5 µM, a TGI [42] of 41.3 µM and a TGI [43] of 14.5 µM. It also gave a TGI [44] of 20.3 µM, a TGI [45] of 10.3 µM and a TGI [46] of 23.4 µM. For the same molecule, the TGI [47] was 13.2 µM, the TGI [48] was 10.8 µM and the TGI [49] was > 100 µM. It also gave a TGI [50] of 3.77 µM, a TGI [51] of 23.8 µM and a TGI [52] of 5.01 µM. The TGI [54] was 29.2 µM, the TGI [55] was 8.74 µM and the TGI [56] was 12.7 µM. For the same molecule, the TGI [57] was 34.8 µM, the TGI [58] was 9.36 µM and the TGI [59] was 6.27 µM.

Reference: PubChem BioAssay (NCI)
